Source: patent US20110039902A1, “PROCESS FOR PREPARING A CRYSTALLINE FORM COMPOUND OF 3-BENZYL-2-METHYL-2,3,3a,4,5,6,7,7a-OCTAHYDROBENZO[d]ISOXAZOL-4-ONE” (ABIOGEN PHARMA S.P.A., priority 2008, published 2011)

Test: stability of BTG 1640 hydrochloride salt to temperature
Type: physicochemical
Conditions: at temperatures above 30° C.

For `CN1OC2CCCC(=O)C2C1Cc1ccccc1.Cl` (stereo not shown) [hydrochloride salt of BTG 1640], the stability to temperature was “unstable”.
